Consider six compounds from patent US11999750B2, “Crystalline forms of (S)-5-benzyl-N-(5-methyl-4-oxo-2,3,4,5-tetrahydropyrido [3,2-B][1,4]oxazepin-3-yl)-4H-1,2,4-triazole-3-carboxamide” (Denali Therapeutics Inc., priority 2022, dated 2024).

What all share (type): physicochemical
Data set [1] is described as follows: Exposure to ambient condition (XRPD comparison). From the text:
Therefore, TGA and DSC characterizations were not performed for Form E. According to the single crystal structure determination results, Form E is a DCM solvate.

Data set [2] is described as follows: Dynamic Vapor Sorption (DVS). The settings on record: for Weight gain by DVS: 0 percent to 95 percent relative humidity; for Weight gain by DVS / Hygroscopicity: about 25 degrees centigrade; for Form change after DVS test: XRPD after DVS, 25° C., 0 to 95% RH; for Hygroscopicity: no hygroscopicity = weight gain less than 0.2 weight percent, 0 to 95 percent RH. On the procedure: DVS was measured via a SMS (Surface Measurement Systems) DVS Intrinsic. The relative humidity at 25° C. were calibrated against deliquescence point of LiCl, Mg(NO3)2 and KCl. To investigate the solid form stability as a function of humidity, DVS isotherm plots of Form A, Form B, and Form C were collected at 25° C. between 0 and 95% RH. […] As determined by Dynamic Vapor Sorption (DVS) in the range of from 0 percent to 95 percent relative humidity at a temperature of about 25 degrees centigrade (plus or minus 0.2 degrees C.), the crystalline Form A, Form B, and Form C of Compound (I) show a weight gain of about 0.09 weight percent, 0.07 weight percent, and 5.7 weight percent, respectively.

The nature of data set [3]: Kinetic solubility in bio-relevant media (SGF, FaSSIF, FeSSIF) and H2O at 37° C. The settings on record: for solubility at 24 h / solubility at 4 h: 37 °C, thermodynamic from solid; for Form change after kinetic solubility test: bio-relevant media or H2O, XRPD of residual solids. On the procedure:
Kinetic solubility tests of Form A, Form B, and Form C was performed in bio-relevant media (SGF, FaSSIF and FeSSIF) and H2O at 37° C. Solids were suspended into FaSSIF, FeSSIF, SGF and H2O with target conc. of ˜10 mg/mL. The suspensions were agitated on a rolling incubator at 25 rpm (in the incubator set at 37° C.) for 1, 4 and 24 hrs. At each time point, 1 mL of the suspension was pipetted out for centrifugation at 25000 rpm (3 min) and filtration through 0.45 μm membrane to obtain supernatant for HPLC solubility and pH tests. The residual solids were analyzed by XRPD. […] The solubility of Form A/B/C was summarized from Table 22-24.

Data set [4] can be described thus: Physical and chemical stability on storage (XRPD and HPLC). As to conditions: 40° C./75% RH; 25° C./60% RH; 60° C.; two and four weeks. As for the experimental part:
To evaluate the physical and chemical stability, Form A, Form B, and Form C were stored in 3 conditions (40° C./75% RH; 25° C./60% RH; and 60° C.) for two and four weeks. All samples were characterized using XRPD and HPLC.

Data set [5] is described as follows: Slurry competition experiments (inter-conversion study of crystal forms). The settings on record: for Thermodynamic stability relationship / conversion in slurry: slurry in H2O and n-Heptane for 2 days, RT and 70° C. On the procedure: To understand the thermodynamic stability relationship between Form A, B and C, slurry competition experiments in H2O and n-Heptane were performed at RT and 70° C. Prior to the study, the starting material (Form A of Compound (I)) was used to saturate the corresponding solvent at RT and 70° C. before filtered to obtain a near-saturated solution. Equal amounts (˜ 5 mg) of Form A, Form B and Form C were weighed and then added to 0.3 mL of the prepared solution to form a new suspension, which was stirred magnetically (˜1000 rpm) at RT/70° C. for about 2 days.

A short description of data set [6]: Equilibrium solubility in pH buffers, residual solid by XRPD. As to conditions: 8 pH buffers (pH 1.0-8.0), RT, 24 hrs, XRPD of residual solids. On the procedure: Equilibrium solubility of Form B was measured in 8 pH buffers (i.e., pH 1.0, 2.0, 3.0, 4.0, 5.0, 6.0, 7.0, 8.0) at RT for 24 hrs. Solids were suspended into pH buffers with target conc. of ˜10 mg/mL. The suspensions were slurried at RT for 24 hrs (1000 rpm), prior to centrifugation at 20000 rpm (2 min), and filtration through 0.45 μm membrane to obtain supernatant for HPLC solubility and pH tests. The residual solids were analyzed by XRPD.

Data set [7] in a line: Form identification by heating to 100° C. and cooling to RT (XRPD comparison). As for the experimental part: A weight loss of 5.7% up to 100° C. was observed on the TGA curve for Form C prepared by evaporation. […] (peak temperature) and 124.9° C. (onset temperature). […] (peak temperature) and 127.0° C. (onset temperature) were observed on the DSC curve. For form identification, variable-temperature XRPD (VT-XRPD) was performed for Form C. […] Considering the large TGA weight loss and no XRPD change after removal of water/solvent (VT-XRPD). Single crystal structure determination confirmed that Form C is a channel hydrate (without form change after dehydration).
A two-stage weight loss of 3.8% up to 85° C. and 11.5% from 85° C. to 120° C. was observed on the TGA curve. […] For form identification, Form D was heated to 100° C. and cooled to RT. […] According to the results, Form D was characterized to be an IPA solvate.

Structures are written as SMILES. In brackets after ≈: the same amount, converted by molar mass. Entries after “also recorded” stand apart in the source; their conditions may differ.

As a reminder, the solubility is how much of the substance goes into solution per volume. Broadly, the Solubility is the dissolved amount per volume that the medium holds. A higher Solubility goes with much dissolved substance.

With `CN1C(=O)[C@@H](NC(=O)c2nnc(Cc3ccccc3)[nH]2)COc2cccnc21` [Form E, (S)-5-benzyl-N-(5-methyl-4-oxo-2,3,4,5-tetrahydropyrido [3,2-b][1,4]oxazepin-3-yl)-4H-1,2,4-triazole-3-carboxamide], the “Form change on exposure to ambient condition” value in data set [1] is given as “converted to Form C”.

Regarding `CN1C(=O)[C@@H](NC(=O)c2nnc(Cc3ccccc3)[nH]2)COc2cccnc21` [Form A, (S)-5-benzyl-N-(5-methyl-4-oxo-2,3,4,5-tetrahydropyrido [3,2-b][1,4]oxazepin-3-yl)-4H-1,2,4-triazole-3-carboxamide], in data set [2], the “Weight gain by DVS” value is reported as “about 0.09 weight percent”. For the same compound, the “Form change after DVS test” value in data set [2] is “no form change”. In addition, the Hygroscopicity result in data set [2] is “no hygroscopicity; also recorded: less hygroscopic”. The solubility at 24 h in data set [3] (FaSSIF, pH 6.5, fassif, FaSSIF (pH 6.5), 24 hr) is 100 µg/mL (≈ 264 µM); in data set [3] (FeSSIF, pH 5, fessif, FeSSIF (pH 5.0), 24 hr), 120 µg/mL (≈ 317 µM); in data set [3] (SGF, pH 1.8, simulated gastric fluid, SGF (pH 1.8), 24 hr) it was 100 µg/mL (≈ 264 µM); in data set [3] (water, pH 6.5, water, H2O (pH 6.5), 24 hr) it was 90 µg/mL (≈ 238 µM). For the same compound, the Solubility amounted to 120 µg/mL (≈ 317 µM) in data set [3] (FeSSIF (pH 5.0), 1 hr) and 80 µg/mL (≈ 211 µM) in data set [3] (H2O (pH 6.5), 1 hr). Moreover, the solubility at 4 h in data set [3] (FeSSIF, pH 5, fessif, FeSSIF (pH 5.0), 4 hr) was 120 µg/mL (≈ 317 µM); in data set [3] (SGF, pH 1.8, simulated gastric fluid, SGF (pH 1.8), 4 hr), 100 µg/mL (≈ 264 µM); in data set [3] (water, pH 6.5, water, H2O (pH 6.5), 4 hr) it was 90 µg/mL (≈ 238 µM). For the same compound, in data set [3], the “Form change after kinetic solubility test” value is “No form change”. Also, the “Form change on storage (XRPD)” value in data set [4] is listed as “no observable form change”. The “HPLC purity change on storage” value in data set [4] is recorded as “no noticeable HPLC purity change”. In addition, in data set [5], the “Thermodynamic stability relationship / conversion in slurry” value is reported as “converted to Form B”.

`CN1C(=O)[C@@H](NC(=O)c2nnc(Cc3ccccc3)[nH]2)COc2cccnc21` [Form B, (S)-5-benzyl-N-(5-methyl-4-oxo-2,3,4,5-tetrahydropyrido [3,2-b][1,4]oxazepin-3-yl)-4H-1,2,4-triazole-3-carboxamide]: the “Weight gain by DVS” value in data set [2] is around 0.07 weight percent. Further, the “Form change after DVS test” value in data set [2] is reported as “no form change”. The Hygroscopicity entry in data set [2] was “less hygroscopic; also recorded: no hygroscopicity; also recorded: not hygroscopic”. Moreover, the Solubility in data set [3] (FaSSIF (pH 6.5), 1 hr) stood at 80 µg/mL (≈ 211 µM); in data set [3] (FaSSIF (pH 6.5), 4 hr), 90 µg/mL (≈ 238 µM); in data set [3] (FaSSIF (pH 6.5), 24 hr) it was 90 µg/mL (≈ 238 µM); in data set [3] (FeSSIF (pH 5.0), 1 hr), 100 µg/mL (≈ 264 µM); in data set [3] (FeSSIF (pH 5.0), 4 hr), 110 µg/mL (≈ 291 µM); in data set [3] (FeSSIF (pH 5.0), 24 hr), 100 µg/mL (≈ 264 µM). Also, the Solubility in data set [3] (H2O (pH 6.5), 1 hr) came out at 70 µg/mL (≈ 185 µM); in data set [3] (H2O (pH 6.5), 4 hr), 70 µg/mL (≈ 185 µM); in data set [3] (H2O (pH 6.5), 24 hr), 70 µg/mL (≈ 185 µM); in data set [3] (SGF (pH 1.8), 1 hr) it was 80 µg/mL (≈ 211 µM); in data set [3] (SGF (pH 1.8), 4 hr) it was 80 µg/mL (≈ 211 µM); in data set [3] (SGF (pH 1.8), 24 hr) it was 80 µg/mL (≈ 211 µM). For the same compound, in data set [3], the “Form change after kinetic solubility test” value is given as “No form change”. The “Form change on storage (XRPD)” value in data set [4] is reported as “no observable form change”. Moreover, the “HPLC purity change on storage” value in data set [4] was “no noticeable HPLC purity change”. In addition, the “Thermodynamic stability relationship / conversion in slurry” value in data set [5] is recorded as “thermodynamically more stable”. Also, the “Form change after equilibrium solubility evaluation” value in data set [6] is “No form change”.

On to `CN1C(=O)[C@@H](NC(=O)c2nnc(Cc3ccccc3)[nH]2)COc2cccnc21` [Form A + B + C], for which, in data set [5] (H2O or n-Heptane, RT or 70° C., about 2 days (experiments 1-4, merged cell)), the “Crystal form after slurry competition” value is on record as “Form B”.

Take `CN1C(=O)[C@@H](NC(=O)c2nnc(Cc3ccccc3)[nH]2)COc2cccnc21` [Form D, (S)-5-benzyl-N-(5-methyl-4-oxo-2,3,4,5-tetrahydropyrido [3,2-b][1,4]oxazepin-3-yl)-4H-1,2,4-triazole-3-carboxamide]: the “Form change after heating to 100° C. and cooling to RT” value in data set [7] is “converted to Form C”.

With `CN1C(=O)[C@@H](NC(=O)c2nnc(Cc3ccccc3)[nH]2)COc2cccnc21` [Form C, (S)-5-benzyl-N-(5-methyl-4-oxo-2,3,4,5-tetrahydropyrido [3,2-b][1,4]oxazepin-3-yl)-4H-1,2,4-triazole-3-carboxamide], the “Weight gain by DVS” value in data set [2] is given as around 5.7 weight percent. Further, the “Form change after DVS test” value in data set [2] is on record as “no form change”. The “Form change after heating to 100° C. and cooling to RT” value in data set [7] is recorded as “no form change”. Also, the Solubility in data set [3] (FaSSIF (pH 6.5), 1 hr) is 860 µg/mL (≈ 2270 µM); in data set [3] (FaSSIF (pH 6.5), 4 hr), 730 µg/mL (≈ 1930 µM); in data set [3] (FaSSIF (pH 6.5), 24 hr) it was 150 µg/mL (≈ 396 µM); in data set [3] (FeSSIF (pH 5.0), 1 hr), 970 µg/mL (≈ 2560 µM); in data set [3] (FeSSIF (pH 5.0), 4 hr), 150 µg/mL (≈ 396 µM); in data set [3] (FeSSIF (pH 5.0), 24 hr), 170 µg/mL (≈ 449 µM). In addition, the Solubility stood at 440 µg/mL (≈ 1160 µM) in data set [3] (H2O (pH 6.5), 1 hr); 100 µg/mL (≈ 264 µM) in data set [3] (H2O (pH 6.5), 4 hr); 100 µg/mL (≈ 264 µM) in data set [3] (H2O (pH 6.5), 24 hr); 700 µg/mL (≈ 1850 µM) in data set [3] (SGF (pH 1.8), 1 hr); 110 µg/mL (≈ 291 µM) in data set [3] (SGF (pH 1.8), 4 hr); 100 µg/mL (≈ 264 µM) in data set [3] (SGF (pH 1.8), 24 hr). Besides, in data set [3], the “Form change after kinetic solubility test” value was “converted to Form A”. In addition, the “Final Form” value in data set [3] (residual solid by XRPD, H2O (pH 6.5), 1 hr) was “A + C”. Also, the “Form change on storage (XRPD)” value in data set [4] is listed as “no observable form change”. For the same compound, in data set [4], the “HPLC purity change on storage” value is reported as “no noticeable HPLC purity change”. Moreover, in data set [5], the “Thermodynamic stability relationship / conversion in slurry” value is listed as “converted to Form B”.
